Test results taken from paper PMC5034043 (The Journal of Biological Chemistry, 2016).
Like-named read-outs stand apart in the source and are kept apart here.

Test system: T1, synaptosomal proteome
T1 construct: from tissue; host or cells: brain synaptosomes of male C57/B6 mice
Format: binding, mouse
Method: Synaptosomes were resuspended to 1 mg of protein/ml in HEPES buffer medium (in mM: 140 NaCl, 5 KCl, 5 NaHCO3, 1.2 NaH2PO4, 1 MgCl2, 10 glucose, and 10 HEPES (pH 7.4)). […] The samples were allowed to equilibrate for 5 min before being transferred to a parafilm-sealed 1-mm path length quartz cuvette. The sample was then irradiated for 20 min at a peak bandwidth of 350 nm (Rayonet RPR-3500 lamp) ∼6 cm from the light source. Non-irradiated samples were left in the dark at ambient temperature (22–25 °C) for 20 min. All remaining procedures were conducted with restricted light exposure.
To 750 μg of photolabeled or control synaptosome samples, 40 μl of 10% SDS and 2 μl of 5 mM DTT in water were added. Samples were then vortexed, heated for 10 min at 65 °C, and then briefly cooled. Final concentrations of 150 μM azide-biotin (Click Chemistry Tools), 2 mM tris(3-hydroxypropyltriazolylmethyl)amine (Sigma), 1 mM ascorbic acid (Sigma), and 1 mM CuSO4·5H2O (Sigma) were added to each sample and vortexed vigorously. The samples were left in the dark at ambient temperature (22–25 °C) for 1 h with mild agitation. Directly to each sample 4× volume chilled methanol, 1.5× chilled chloroform, and 3× chilled double distilled H2O were added. Samples were vortexed vigorously and centrifuged at 1,400 × g for 30 min at 4 °C. Both liquid layers were carefully removed, and the protein pellet was washed with 2 ml of 1:1 (v/v) chilled methanol/chloroform. Samples were centrifuged at 3,500 × g for 30 min at 4 °C. Protein pellets were briefly air-dried before further processing.
750 μg of biotin-conjugated protein sample was resuspended in 500 μl of 25 mM NH4HCO3 and 6 M urea in water. Next, 150 μl of 5% Triton X-100 in water, 50 μl of 10% SDS in water, and 1.5 μl of 0.5 M DTT were added. The samples were heated for 15 min at 65 °C. After briefly cooling, 14 μl of 0.5 M iodoacetamide in water was added, and the sample was left in the dark for 45 min. […] The supernatant was diluted to 4 ml with PBS, and 2 ml of PBS containing 100 μl of 50% streptavidin-agarose resin (Thermo Scientific) was added. Biotinylated proteins within the sample were captured over resin overnight at 4 °C with mild agitation. The resin was first washed with 6 ml of 1% SDS in PBS, and then 7 ml of 0.1 M urea in PBS followed by 10 ml of PBS. The resin underwent a final wash with 0.9 ml of 50 mM Tris-HCl and 1 mM CaCl2 in water (pH 8.0) and then resuspended in 200 μl of 50 mM Tris-HCl, 1 mM CaCl2 in water (pH 8.0), and 2 μg of porcine sequencing grade trypsin (Promega). Samples were digested overnight at 37 °C. Samples were then centrifuged at 2,000 × g for 4 min, and digest supernatant was decanted. Beads were washed in 100 μl of PBS centrifuged at 5,200 × g for 5 min, and the wash was combined with the digest supernatant. To the combined sample, trifluoroacetic acid (TFA) was added to 0.4% (v/v) or until pH <2. The sample was desalted with Oasis C18 10-mg columns (Waters) as described previously ([66]). The eluted sample was dried by speed vac and resuspended in 0.1 M HEPES buffer (pH 8.5). […] Appropriate corresponding TMTsixplex^TM-labeled samples were pooled and dried by speed vac. The combined samples were resuspended in 0.5% acetic acid in water and pH-corrected with acetic acid until pH was <2. 40 μg of protein was desalted with C18 stage tips prepared in-house and dried by speed vac.
Samples were resuspended in 10 mM KH2PO4 (pH 2.6), 30% acetonitrile (v/v) in water, and fractionated by off-line strong cation exchange chromatography prior to mass spectrometry (MS) analysis similar to as reported previously ([66]). The full synaptosome proteome control was prepared similarly without TMTsixplex^TM labeling.
All TMT samples were analyzed with three-stage mass spectrometry (MS3) TMTsixplex^TM quantification workflow as described previously ([34]).

[1] = protein P27671 Ras-specific guanine nucleotide-releasing factor 1 (Rasgrf1)
[2] = protein P35762 CD81 antigen (Cd81)
[3] = protein P46096 Synaptotagmin-1 (Syt1)
[4] = protein P50544 Very long-chain specific acyl-CoA dehydrogenase, mitochondrial (Acadvl)
[5] = protein P50571 Gamma-aminobutyric acid receptor subunit beta-1 (Gabrb1)
[6] = protein P56564 Excitatory amino acid transporter 1 (Slc1a3)
[7] = protein P60879 Synaptosomal-associated protein 25 (Snap25)
[8] = protein P61264 Syntaxin-1B (Stx1b)
[9] = protein P62204 Calmodulin (Calm1)
[10] = protein P63328 Serine/threonine-protein phosphatase 2B catalytic subunit alpha isoform (Ppp3ca)
[11] = protein Q2TPA8 Hydroxysteroid dehydrogenase-like protein 2 (Hsdl2)
[12] = protein Q3TXX4 Vesicular glutamate transporter 1 (Slc17a7)
[13] = protein Q3UN02 Lysocardiolipin acyltransferase 1 (Lclat1)
[14] = protein Q4W8U9 Scg2 protein (Scg2)
[15] = protein Q5U458 DnaJ homolog subfamily C member 11 (Dnajc11)
[16] = protein Q7TME0 Lipid phosphate phosphatase-related protein type 4 (Lppr4)
[17] = protein Q7TQ95 Protein lunapark (Lnp)
[18] = protein Q8BFT9 Synaptic vesicle 2-related protein (Svop)
[19] = protein Q8BG39 Synaptic vesicle glycoprotein 2B (Sv2b)
[20] = protein Q8BH59 Calcium-binding mitochondrial carrier protein Aralar1 (Slc25a12)
[21] = protein Q8BH66 Atlastin-1 (Atl1)
[22] = protein Q8BUN9 Protein Slc24a2 (Slc24a2)
[23] = protein Q8BW75 Amine oxidase [flavin-containing] B (Maob)
[24] = protein Q8CGK7 Guanine nucleotide-binding protein G(olf) subunit alpha (Gnal)
[25] = protein Q8K0T0 Reticulon-1 (Rtn1)
[26] = protein Q9CPQ3 Mitochondrial import receptor subunit TOM22 homolog (Tomm22)
[27] = protein Q9CWK8 Sorting nexin-2 (Snx2)
[28] = protein Q9D6J5 NADH dehydrogenase [ubiquinone] 1 beta subcomplex subunit 8, mitochondrial (Ndufb8)
[29] = protein Q9D328 Transmembrane protein 35 (Tmem35)
[30] = protein Q9ERS2 NADH dehydrogenase [ubiquinone] 1 alpha subcomplex subunit 13 (Ndufa13)
[31] = protein Q9ESW4 Acylglycerol kinase, mitochondrial (Agk)
[32] = protein Q9QXV0 ProSAAS (Pcsk1n)
[33] = protein Q9QZM0 Ubiquilin-2 (Ubqln2)
[34] = protein Q9R0K7 Plasma membrane calcium-transporting ATPase 2 (Atp2b2)
[35] = protein Q9Z0V2 Potassium voltage-gated channel subfamily D member 2 (Kcnd2)
[36] = protein Q67BT3 Solute carrier family 13 member 5 (Slc13a5)
[37] = protein Q80X80 C2 domain-containing protein 2-like (C2cd2l)
[38] = protein Q91YQ5 Dolichyl-diphosphooligosaccharide--protein glycosyltransferase subunit 1 (Rpn1)
[39] = protein Q99PU5 Long-chain-fatty-acid--CoA ligase ACSBG1 (Acsbg1)

CC(C)c1cccc(C(C)C)c1O [propofol, 2,6-diisopropylphenol, reference compound]
% propofol protection [1]: 54% | Log2( Mean 'UV/ UV+propofol') [1]: 1.10 | % propofol protection (protein P35564 Calnexin (Canx)): 54% | Log2( Mean 'UV/ UV+propofol') (protein P35564 Calnexin (Canx)): 1.07 | % propofol protection [2]: 58% | Log2( Mean 'UV/ UV+propofol') [2]: 1.14 | % propofol protection [3]: 50% | Log2( Mean 'UV/ UV+propofol') [3]: 0.95 | % propofol protection [4]: 51% | Log2( Mean 'UV/ UV+propofol') [4]: 0.99 | % propofol protection [5]: 58% | Log2( Mean 'UV/ UV+propofol') [5]: 1.06 | Log2( Mean 'UV/ UV+propofol') (protein P56480 ATP synthase subunit beta, mitochondrial (Atp5b)): 1.15 | % propofol protection [6]: 56% | Log2( Mean 'UV/ UV+propofol') [6]: 1.10 | % propofol protection [7]: 57% | Log2( Mean 'UV/ UV+propofol') [7]: 1.12 | % propofol protection [8]: 57% | Log2( Mean 'UV/ UV+propofol') [8]: 1.14 | % propofol protection [9]: 53% | Log2( Mean 'UV/ UV+propofol') [9]: 0.97 | % propofol protection [10]: 52% | Log2( Mean 'UV/ UV+propofol') [10]: 0.93 | % propofol protection [11]: 53% | Log2( Mean 'UV/ UV+propofol') [11]: 1.03 | % propofol protection [12]: 57% | Log2( Mean 'UV/ UV+propofol') [12]: 1.15 | % propofol protection [13]: 52% | Log2( Mean 'UV/ UV+propofol') [13]: 1.03 | % propofol protection [14]: 53% | Log2( Mean 'UV/ UV+propofol') [14]: 0.99 | Log2( Mean 'UV/ UV+propofol') (protein Q5IRJ6 Zinc transporter 9 (Slc30a9)): 1.17 | % propofol protection [15]: 53% | Log2( Mean 'UV/ UV+propofol') [15]: 0.96 | % propofol protection [16]: 57% | Log2( Mean 'UV/ UV+propofol') [16]: 1.08 | % propofol protection [17]: 58% | Log2( Mean 'UV/ UV+propofol') [17]: 1.23 | % propofol protection [18]: 53% | Log2( Mean 'UV/ UV+propofol') [18]: 0.94 | % propofol protection [19]: 50% | Log2( Mean 'UV/ UV+propofol') [19]: 0.94 | Log2( Mean 'UV/ UV+propofol') (protein Q8BG51 Mitochondrial Rho GTPase 1 (Rhot1)): 1.18 | Log2( Mean 'UV/ UV+propofol') (protein Q8BH24 Transmembrane 9 superfamily member 4 (Tm9sf4)): 1.11 | % propofol protection [20]: 50% | Log2( Mean 'UV/ UV+propofol') [20]: 0.98 | % propofol protection [21]: 57% | Log2( Mean 'UV/ UV+propofol') [21]: 1.14 | % propofol protection [22]: 52% | Log2( Mean 'UV/ UV+propofol') [22]: 1.03 | % propofol protection [23]: 56% | Log2( Mean 'UV/ UV+propofol') [23]: 1.10 | % propofol protection [24]: 55% | Log2( Mean 'UV/ UV+propofol') [24]: 1.05 | % propofol protection [25]: 57% | Log2( Mean 'UV/ UV+propofol') [25]: 1.05 | Log2( Mean 'UV/ UV+propofol') (protein Q8VCX5 Calcium uptake protein 1, mitochondrial (Micu1)): 1.09 | % propofol protection [26]: 57% | Log2( Mean 'UV/ UV+propofol') [26]: 1.05 | % propofol protection [27]: 51% | Log2( Mean 'UV/ UV+propofol') [27]: 1.00 | % propofol protection [28]: 57% | Log2( Mean 'UV/ UV+propofol') [28]: 1.23 | % propofol protection [29]: 55% | Log2( Mean 'UV/ UV+propofol') [29]: 1.10 | % propofol protection [30]: 53% | Log2( Mean 'UV/ UV+propofol') [30]: 0.98 | % propofol protection [31]: 58% | Log2( Mean 'UV/ UV+propofol') [31]: 1.18 | Log2( Mean 'UV/ UV+propofol') (protein Q9JIG8 PRA1 family protein 2 (Praf2)): 1.23 | % propofol protection [32]: 57% | Log2( Mean 'UV/ UV+propofol') [32]: 1.11 | % propofol protection [33]: 51% | Log2( Mean 'UV/ UV+propofol') [33]: 0.96 | % propofol protection [34]: 51% | Log2( Mean 'UV/ UV+propofol') [34]: 1.00 | Log2( Mean 'UV/ UV+propofol') (protein Q9WU79 Proline dehydrogenase 1, mitochondrial (Prodh)): 1.11 | % propofol protection [35]: 52% | Log2( Mean 'UV/ UV+propofol') [35]: 1.01 | % propofol protection [36]: 57% | Log2( Mean 'UV/ UV+propofol') [36]: 1.13 | % propofol protection [37]: 53% | Log2( Mean 'UV/ UV+propofol') [37]: 1.04 | % propofol protection [38]: 55% | Log2( Mean 'UV/ UV+propofol') [38]: 1.11 | % propofol protection [39]: 58% | Log2( Mean 'UV/ UV+propofol') [39]: 1.12 | Log2( Mean 'UV/ UV+propofol') (protein Q925I1 ATPase family AAA domain-containing protein 3 (Atad3)): 1.17
